Reference: ChEMBL document CHEMBL2069289, “Phosphodiesterase inhibitors. Part 4: design, synthesis and structure-activity relationships of dual PDE3/4-inhibitory fused bicyclic heteroaromatic-4,4-dimethylpyrazolones” (Bioorg Med Chem Lett, 2012)
Calls of active or inactive are those of the source. The calls are words filed in the database; no cut-off is given here.

What was measured:
[1] = target: cGMP-inhibited 3',5'-cyclic phosphodiesterase 3A (Homo sapiens, UniProt Q14432); experiment: Inhibition of core catalytic domain of PDE3A
Chain of cGMP-inhibited 3',5'-cyclic phosphodiesterase 3A (Q14432 whole entry, the tested form may be a part): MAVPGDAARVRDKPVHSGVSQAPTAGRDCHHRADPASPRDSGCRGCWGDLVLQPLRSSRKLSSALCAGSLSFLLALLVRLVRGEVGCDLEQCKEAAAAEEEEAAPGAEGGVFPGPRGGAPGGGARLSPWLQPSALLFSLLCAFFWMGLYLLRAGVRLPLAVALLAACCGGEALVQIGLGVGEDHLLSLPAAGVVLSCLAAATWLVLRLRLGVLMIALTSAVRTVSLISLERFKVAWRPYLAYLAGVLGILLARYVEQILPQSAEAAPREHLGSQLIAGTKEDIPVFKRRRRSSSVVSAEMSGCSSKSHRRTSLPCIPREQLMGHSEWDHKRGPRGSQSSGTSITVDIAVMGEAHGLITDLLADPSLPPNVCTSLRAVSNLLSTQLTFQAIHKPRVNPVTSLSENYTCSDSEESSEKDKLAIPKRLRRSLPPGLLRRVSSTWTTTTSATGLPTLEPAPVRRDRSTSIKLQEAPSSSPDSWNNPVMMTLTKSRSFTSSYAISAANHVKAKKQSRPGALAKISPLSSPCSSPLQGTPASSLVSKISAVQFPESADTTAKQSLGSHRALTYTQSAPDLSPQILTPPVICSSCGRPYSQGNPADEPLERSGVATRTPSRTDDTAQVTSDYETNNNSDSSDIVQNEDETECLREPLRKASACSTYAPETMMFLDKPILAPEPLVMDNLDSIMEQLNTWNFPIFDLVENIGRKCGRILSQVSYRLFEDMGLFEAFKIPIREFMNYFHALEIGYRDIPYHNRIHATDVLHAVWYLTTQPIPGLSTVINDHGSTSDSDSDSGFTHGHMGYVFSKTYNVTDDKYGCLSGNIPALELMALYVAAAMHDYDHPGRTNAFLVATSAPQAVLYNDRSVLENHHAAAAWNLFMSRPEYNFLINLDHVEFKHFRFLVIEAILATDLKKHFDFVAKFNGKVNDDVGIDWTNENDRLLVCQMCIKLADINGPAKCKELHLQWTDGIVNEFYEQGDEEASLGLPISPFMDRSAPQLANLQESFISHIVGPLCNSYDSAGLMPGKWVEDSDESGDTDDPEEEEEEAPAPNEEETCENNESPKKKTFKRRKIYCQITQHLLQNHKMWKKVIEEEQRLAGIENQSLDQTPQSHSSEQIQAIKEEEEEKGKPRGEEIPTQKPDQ

[2] = target: 3',5'-cyclic-AMP phosphodiesterase 4B (Homo sapiens, UniProt Q07343); experiment: Inhibition of core catalytic domain of PDE4B
Chain of 3',5'-cyclic-AMP phosphodiesterase 4B (Q07343 whole entry, the tested form may be a part): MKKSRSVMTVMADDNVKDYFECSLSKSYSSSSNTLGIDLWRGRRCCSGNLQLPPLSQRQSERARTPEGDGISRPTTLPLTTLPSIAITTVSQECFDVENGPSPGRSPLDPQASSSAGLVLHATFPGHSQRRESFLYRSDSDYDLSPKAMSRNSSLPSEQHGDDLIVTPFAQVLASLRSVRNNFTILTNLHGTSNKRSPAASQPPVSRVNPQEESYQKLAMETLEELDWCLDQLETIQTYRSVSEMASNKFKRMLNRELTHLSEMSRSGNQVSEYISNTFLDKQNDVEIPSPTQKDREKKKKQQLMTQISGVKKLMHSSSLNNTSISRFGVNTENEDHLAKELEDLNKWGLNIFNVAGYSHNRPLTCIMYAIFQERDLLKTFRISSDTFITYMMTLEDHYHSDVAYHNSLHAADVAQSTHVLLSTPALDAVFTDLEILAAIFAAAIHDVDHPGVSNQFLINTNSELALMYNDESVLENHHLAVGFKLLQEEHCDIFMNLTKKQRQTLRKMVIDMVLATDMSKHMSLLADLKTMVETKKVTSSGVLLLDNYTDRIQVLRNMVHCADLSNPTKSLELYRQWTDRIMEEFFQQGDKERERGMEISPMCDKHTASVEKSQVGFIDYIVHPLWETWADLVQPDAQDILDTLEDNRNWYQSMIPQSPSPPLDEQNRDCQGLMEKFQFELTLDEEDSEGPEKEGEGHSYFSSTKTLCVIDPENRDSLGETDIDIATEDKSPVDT

Cavia porcellus [3] = experiment: Bronchodilatory activity in guinea pig assessed as reduction of histamine-induced bronchoconstriction at 0.1 mg/kg, po relative to control; type: functional; set-up: scale not given: the % may be the effect or the level left
Cavia porcellus [4] = experiment: Bronchodilatory activity in guinea pig assessed as reduction of histamine-induced bronchoconstriction at 0.3 mg/kg, iv relative to control; type: functional; set-up: scale not given: the % may be the effect or the level left
Homo sapiens = species on record: Homo sapiens; experiment: Selectivity ratio of IC50 for core catalytic domain of PDE4B to IC50 for core catalytic domain of PDE3A

SMILES | IC50 [1] | IC50 [2] | Activity (Cavia porcellus [3]) | Activity (Cavia porcellus [4]) | Ratio IC50 (Homo sapiens)
CCc1cc2c(C3=NNC(=O)C3(C)C)ccc(CO)n2n1 | 1590 nM | 35 nM |  |  | 
CCc1cc2c(C3=NNC(=O)C3(C)C)ccc(C(C)O)n2n1 (racemic) | 1630 nM | 3.4 nM |  |  | 
COc1ccc(C2=NNC(=O)C2(C)C)c2cc(C3CC3)nn12 | 6170 nM | 150 nM |  |  | 
COc1ccc(C2=NNC(=O)C2(C)C)n2cc(C(F)(F)F)nc12 | 140 nM | 150 nM | >70% | 100% | 
COc1ccc(C2=NNC(=O)C2(C)C)c2ccc(C(F)(F)F)nc12 | 6650 nM | 1070 nM |  |  | 
COc1ccc(C2=NNC(=O)C2(C)C)c2cc(C(F)F)nn12 | 3280 nM | 50 nM |  |  | 
CCc1cc2c(C3=NNC(=O)C3(C)C)ccc(OC)n2n1 | 9210 nM | 410 nM |  |  | 
CCc1cc2c(C3=NNC(=O)CC3C)ccc(OC)n2n1 (racemic) | 11300 nM | 470 nM |  |  | 
CCc1cc2c(C3=NNC(=O)C3(C)C)ccc(C)n2n1 | 2370 nM | 160 nM |  |  | 
CCc1cc2c(C3=NNC(=O)C3(C)C)ccc(CC)n2n1 | 2000 nM | 17 nM |  |  | 
COc1ccc(C2=NNC(=O)C2(C)C)c2cc(C(F)(F)F)sc12 | 5360 nM | 690 nM |  |  | 
COc1ccc(C2=NNC(=O)C2(C)C)c2ccnn12 | 10800 nM | 2930 nM |  |  | 
COc1ccc(C2=NNC(=O)C2(C)C)c2cc(C(F)(F)F)nn12 | 4130 nM | 110 nM |  |  | 
CCc1cc2c(C3=NNC(=O)C3(C)C)ccc(C(C)=O)n2n1 | 2500 nM | 7.5 nM |  |  | 
COc1ccc(C2=NNC(=O)C2(C)C)c2[nH]c(C(F)(F)F)nc12 | 14100 nM | 200 nM |  |  | 
CCc1ccc2c(C3=NNC(=O)C3(C)C)ccc(OC)c2n1 | 10100 nM | 2580 nM |  |  | 
COc1ccc(C2=NNC(=O)C2(C)C)c2cc(C(F)(F)F)oc12 | 1100 nM | 360 nM |  |  | 
CCc1cc2c(C3=NNC(=O)C3(C)C)ccc(SC)n2n1 | 9010 nM | 79 nM |  |  | 
CCc1cc2c(C3=NNC(=O)C3(C)C)ccc(NC)n2n1 | 75600 nM | 15 nM |  |  | 5000
COc1ccc(C2=NNC(=O)C2(C)C)c2sc(C(F)(F)F)nc12 | 540 nM | 63 nM | inactive | 96% | 
COc1ccc(C2=NNC(=O)CC2C)c2cc(C(F)(F)F)nn12 (single isomer, unassigned; (-)) | 360 nM | 42 nM |  |  | 
